Experiment [1] deals with T1, Nuclear receptor ROR-alpha (Homo sapiens) (UniProt P35398).
T1 sequence (whole entry): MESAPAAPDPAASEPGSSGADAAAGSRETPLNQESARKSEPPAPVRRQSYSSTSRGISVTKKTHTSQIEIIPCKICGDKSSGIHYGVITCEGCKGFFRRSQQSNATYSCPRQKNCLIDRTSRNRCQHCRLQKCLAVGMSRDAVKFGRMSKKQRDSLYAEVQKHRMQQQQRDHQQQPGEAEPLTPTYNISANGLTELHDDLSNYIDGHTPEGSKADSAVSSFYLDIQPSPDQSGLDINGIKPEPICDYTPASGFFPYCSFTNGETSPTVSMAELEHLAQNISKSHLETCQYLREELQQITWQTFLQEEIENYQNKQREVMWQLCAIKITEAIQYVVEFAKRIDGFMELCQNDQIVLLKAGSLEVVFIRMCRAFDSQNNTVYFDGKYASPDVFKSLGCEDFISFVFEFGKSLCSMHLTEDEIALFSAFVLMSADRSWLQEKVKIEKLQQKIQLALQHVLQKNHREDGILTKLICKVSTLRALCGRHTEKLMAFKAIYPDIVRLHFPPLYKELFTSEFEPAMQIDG
As to the kind of experiment: Partial agonist activity at GST-fussed RORalpha (unknown origin) assessed as recruitment of TIF2 mutant-BAP protein after overnight incubation by pull down assay.

In experiment [2] the target is T2, Nuclear receptor ROR-alpha (Homo sapiens, UniProt P35398).
T2 sequence (P35398 whole entry): T1 sequence (whole entry)
Put plainly: Partial agonist activity at GST-fussed RORalpha (unknown origin) assessed as recruitment of TIF2-BAP protein after overnight incubation by pull down assay.

Experiment [3] concerns the target T1, Nuclear receptor ROR-alpha (Homo sapiens). As to the kind of experiment: Partial agonist activity at GST-fussed RORalpha (unknown origin) assessed as recruitment of TIF2-BAP protein after overnight incubation by pull down assay relative to 7DC.
The target is the same in experiment [4]. Put plainly: Partial agonist activity at GST-fussed RORalpha (unknown origin) assessed as recruitment of TIF2-BAP protein at 30 uM after overnight incubation by pull down assay relative to 7DC.

Experimental findings from ChEMBL document CHEMBL2384919, “Identification of New Nonsteroidal RORα Ligands; Related Structure-Activity Relationships and Docking Studies” (ACS Med Chem Lett, 2013) are described below.

The source made the active and inactive calls. The rule behind the calls is not given here.

On to `CCOC(=O)C1=C(C)NC(=O)NC1c1ccc(OCc2ccccc2)cc1` (racemic), for which the result in experiment [1] was inactive. For the same compound, the EC50 in experiment [2] came out at 4.3 µM. In experiment [3], the Emax turned out to be 25%.
The matching figures for `COc1ccc(COC(=O)C2=C(C)NC(=O)NC2c2ccc(OCc3ccccc3)c(OC)c2)cc1` (racemic): “inactive”, 10.9 µM and 19%.
For `COc1cccc(COC(=O)C2=C(C)NC(=O)NC2c2ccc(OCc3ccccc3)c(OC)c2)c1` (racemic), the outcome in experiment [1] was inactive. The EC50 in experiment [2] is 26.2 µM. The Emax in experiment [3] is 55%.
The matching figures for `COc1ccc(COC(=O)C2=C(C)NC(=O)NC2c2ccc(OCc3ccccc3)c(OC)c2)cc1OC` (racemic): “inactive”, 26.3 µM and 43%.
Consider `COc1cc(C2NC(=O)NC(C)=C2C(=O)OCc2ccc3c(c2)OCO3)ccc1OCc1ccccc1` (racemic), for which the outcome in experiment [1] was inactive. In addition, in experiment [2], the EC50 is 12.5 µM. The Emax in experiment [3] came to 70%.
As to `COc1cc(C2NC(=O)NC(C)=C2C(=O)OCCSC)ccc1OCc1ccccc1` (racemic), the outcome in experiment [1] was inactive. Also, the EC50 in experiment [2] was greater than 30 µM. Moreover, the Emax in experiment [3] worked out at 27%.
As for `COC(=O)C1=C(C)NC(=O)NC1c1ccc(OCc2ccccc2)c(OC)c1` (racemic), the outcome in experiment [1] was inactive. Further, the EC50 in experiment [2] worked out at 13.1 µM. Moreover, the Emax in experiment [3] is 33%.
The matching figures for `C=CCOC(=O)C1=C(C)NC(=O)NC1c1ccc(OCc2ccccc2)c(OC)c1` (racemic): “inactive”, 22.9 µM and 76%.
The matching figures for `CCCCOC(=O)C1=C(C)NC(=O)NC1c1ccc(OCc2ccccc2)c(OC)c1` (racemic): “inactive”, 14 µM and 58%.
`COc1cc(C2NC(=O)NC(C)=C2C(=O)OCC(F)(F)F)ccc1OCc1ccccc1` (racemic): in experiment [1], the outcome was inactive. Besides, the EC50 in experiment [2] is greater than 30 µM. The Emax in experiment [3] is 80%.
The matching figures for `CC1=C(C(=O)OCC(F)(F)F)C(c2ccc(OCc3ccccc3)cc2)NC(=O)N1` (racemic): “inactive”, greater than 30 µM and 12%.
Regarding `CC1=C(C(=O)OCCOc2ccccc2)C(c2ccc(OCc3ccccc3)cc2)NC(=O)N1` (racemic), in experiment [2], the EC50 worked out at 8.1 µM. For the same compound, the Emax in experiment [3] came to 39%.
For `CCOC(=O)C1=C(C)NC(=O)NC1c1cc(OC)c(OCc2ccccc2Cl)cc1Cl` (racemic), in that order: 5.5 µM and 55%.
With `CCOC(=O)C1=C(C)NC(=O)NC1c1ccc(OCc2ccccc2)c(OC)c1` (racemic), the EC50 in experiment [2] came out at 8.9 µM. Besides, the Emax in experiment [3] was 56%.
Regarding `CCOC(=O)C1=C(C)NC(=O)NC1c1ccc(OCCc2ccccc2)c(OC)c1` (racemic), the result in experiment [1] was inactive. In addition, the EC50 in experiment [2] is 20.3 µM. Moreover, in experiment [3], the Emax came to 36%.
The matching figures for `COc1cc(C2NC(=O)NC(C)=C2C(C)=O)ccc1OCc1ccccc1Cl` (racemic): “inactive”, 28.2 µM and 48%.
Consider `CCOC(=O)C1=C(C)N(C)C(=O)NC1c1ccc(OCc2ccccc2)c(OC)c1` (racemic), for which, in experiment [1], the outcome was inactive. Further, in experiment [2], the EC50 was greater than 19 µM. The Emax in experiment [3] is 29%.
Take `CCOC(=O)C1=C(C)NC(=O)N(C)C1c1ccc(OCc2ccccc2)c(OC)c1` (racemic): the outcome in experiment [1] was inactive. Besides, in experiment [2], the EC50 was greater than 30 µM. Also, in experiment [3], the Emax was determined as 19%.
For `CCOC(=O)C1=C(CC)NC(=O)NC1c1ccc(OCc2ccccc2)c(OC)c1` (racemic), in that order: “inactive”, greater than 30 µM and greater than 45%.
In the case of `COc1cc(C2NC(=O)NC(C)=C2C(=O)OCc2ccccc2)ccc1OCc1ccccc1` (racemic), in experiment [1], the outcome was inactive. Also, the concentration giving a half-maximal response (EC50) in experiment [2] is greater than 30 µM. The Emax in experiment [3] was found to be 44%.
For `CC1=C(C(=O)Nc2ccccc2)C(c2ccc(OCc3ccccc3)cc2)NC(=O)N1` (racemic), the result in experiment [1] and in experiment [4] was inactive.
Turning to `CC1=C(C(=O)OCC(C)C)C(c2ccc(OCc3ccccc3)cc2)NC(=O)N1` (racemic), the result in experiment [1] and in experiment [4] was inactive.
With `CCC(C)NC(=O)C1=C(C)NC(=O)NC1c1ccc(OCc2ccccc2)cc1` (racemic), the outcome in experiment [1] and in experiment [4] was inactive.
Consider `CCCOc1ccc(C2NC(=O)NC(C)=C2C(=O)OCC)cc1OC` (racemic), for which the result in experiment [1] and in experiment [4] was inactive.
Consider `CCOC(=O)C1=C(C)NC(=O)NC1c1cc(OC)c(O)cc1Cl` (racemic), for which the outcome in experiment [1] and in experiment [4] was inactive.
Regarding `CCOC(=O)C1=C(C)NC(=O)NC1c1cc(OC)c(OC)cc1Cl` (racemic), the result in experiment [1] and in experiment [4] was inactive.
Take `CCOC(=O)C1=C(C)NC(=O)NC1c1ccc(OCCCc2ccccc2)c(OC)c1` (racemic): the outcome in experiment [1] and in experiment [4] was inactive.
As to `COc1cc(C2NC(=O)NC(C)=C2C(=O)NCc2ccccc2)ccc1OCc1ccccc1` (racemic), the result in experiment [1] and in experiment [4] was inactive.
Take `COc1cc(C2NC(=O)NC(C)=C2C(=O)O)ccc1OCc1ccccc1` (racemic): the outcome in experiment [1] and in experiment [4] was inactive.
With `COc1cc(C2NC(=O)NC(C)=C2C(=O)OCC2CCCCC2)ccc1OCc1ccccc1` (racemic), the outcome in experiment [1] and in experiment [4] was inactive.
Take `COc1cc(C2NC(=O)NC(C)=C2C(=O)OCC2CCCO2)ccc1OCc1ccccc1` (racemic): the outcome in experiment [1] and in experiment [4] was inactive.
For `COc1cc(C2NC(=O)NC(C)=C2C(=O)OCCOC(C)C)ccc1OCc1ccccc1` (racemic), the outcome in experiment [1] and in experiment [4] was inactive.
On to `COc1cc(C2NC(=O)NC(C)=C2C(=O)OCCc2ccccc2)ccc1OCc1ccccc1` (racemic), for which the outcome in experiment [1] and in experiment [4] was inactive.
As to `COc1cc(C2NC(=O)NC(C)=C2C(C)=O)ccc1OCc1ccccc1` (racemic), the result in experiment [1] and in experiment [4] was inactive.
Take `COc1cc(C2NC(=O)NC(C)=C2C(N)=O)ccc1OCc1ccccc1` (racemic): the result in experiment [1] and in experiment [4] was inactive.
Consider `CCOc1cc(C2NC(=O)NC(C)=C2C(C)=O)ccc1OCc1ccccc1Cl` (single isomer, unassigned; enantiomer 1) [listing 1 of 2 here], for which the EC50 in experiment [2] was found to be 10.9 µM.
`CCOc1cc(C2NC(=O)NC(C)=C2C(C)=O)ccc1OCc1ccccc1Cl` (single isomer, unassigned; enantiomer 1) [listing 2 of 2 here]: the outcome in experiment [1] was inactive. In experiment [3], the Emax was found to be 85%.
For `CCOc1cc(C2NC(=O)NC(C)=C2C(C)=O)ccc1OCc1ccccc1Cl` (single isomer, unassigned; enantiomer 2) [listing 1 of 2 here], the EC50 in experiment [2] is greater than 30 µM.
For `CCOc1cc(C2NC(=O)NC(C)=C2C(C)=O)ccc1OCc1ccccc1Cl` (single isomer, unassigned; enantiomer 2) [listing 2 of 2 here], the outcome in experiment [1] was inactive. The Emax in experiment [3] is greater than 41%.
As for `CCOc1cc(C2NC(=O)NC(C)=C2C(C)=O)ccc1OCc1ccccc1Cl` (stereo in doubt; 1) [listing 1 of 2 here], in experiment [2], the EC50 came to 12.7 µM.
With `CCOc1cc(C2NC(=O)NC(C)=C2C(C)=O)ccc1OCc1ccccc1Cl` (stereo in doubt; 1) [listing 2 of 2 here], the outcome in experiment [1] was inactive. Besides, in experiment [3], the Emax came out at 88%.

For orientation: EC50 means the midpoint of the concentration-response curve. What is called Emax is the size of the effect at its maximum, as opposed to the concentration needed.
